Laboratory results as given in the NIST ThermoML archive (doi:10.1016/j.fluid.2008.06.004).
“And” between values parts separate entries of the source, which are not always exact repeats. Identical values can stand only once.

What was measured:
[1] = Liquid; for mass density: 298.15 K, 101.33 kPa
[2] = refractive index (Na D-line) (dimensionless); details: 298.15 K; 101.33 kPa; Liquid; Standard Abbe refractometry

CC(C)O [propan-2-ol]
Details	mass density [kg/m3]	refractive index
[1]	780.75	–
[2]	–	1.37497

[1], Ebulliometric method (Recirculating still)
Details	vapor or sublimation pressure [kPa]
319.8 K	20
355.4 K	101.3

CCO [ethanol]
Details	mass density [kg/m3]	refractive index
[1]	786.47	–
[2]	–	1.35939

[1], Ebulliometric method (Recirculating still)
Details	vapor or sublimation pressure [kPa]
315.41 K	20
351.46 K	101.3

CCCO [propan-1-ol]
Details	mass density [kg/m3]	refractive index
[1]	799.44	–
[2]	–	1.38305

[1]
Details	vapor or sublimation pressure [kPa]
332.67 K	20
370.21 K	101.3

CCC(C)=O [butanone]
Details	mass density [kg/m3]	refractive index
[1]	799.62	–
[2]	–	1.37614

[1], Ebulliometric method (Recirculating still)
Details	vapor or sublimation pressure
308.22 K	18.73 kPa
309.55 K	20 kPa
310.48 K	20.76 kPa
312.56 K	22.74 kPa
313.8 K	24.01 kPa
316.39 K	26.73 kPa
318.16 K	28.71 kPa
319.63 K	30.72 kPa
321.2 K	32.71 kPa
324.08 K	36.72 kPa
326.86 K	40.72 kPa
329.31 K	44.73 kPa
331.49 K	48.73 kPa
333.61 K	52.73 kPa
335.64 K	56.74 kPa
337.53 K	60.73 kPa
339.37 K	64.72 kPa
341.07 K	68.73 kPa
342.7 K	72.72 kPa
344.29 K	76.74 kPa
345.74 K	80.72 kPa
347.19 K	84.73 kPa
348.59 K	88.73 kPa
349.95 K	92.74 kPa
350.49 K	94.41 kPa
351.4 K	97.29 kPa
352.68 K	101.32 kPa and 101.3 kPa
354.04 K	105.95 kPa
355.29 K	110.24 kPa
356.39 K	114.07 kPa
357.91 K	119.51 kPa
359.12 K	124.08 kPa
360.32 K	128.72 kPa
361.22 K	132.46 kPa
362.08 K	135.91 kPa
